Results: article PMC8175350, “Drug repurposing screens identify chemical entities for the development of COVID-19 interventions” (Nature Communications, 2021)
Where a name gives a salt, the structure may show the parent alone. Read-outs that look alike come from different tables or passages of the source.

Assays:
[1] = system: SARS-CoV-2; assay: microbe, parasite or virus in culture; format: cell-based; conditions: for Emax: Severe acute respiratory syndrome coronavirus 2, Calu-3, 48 h, read-out: Calu-3 CoV-2 Sinf Average
[2] = Uninfected HeLa-ACE2 24 h live/dead cytotoxicity counter screen; format: cell-based, human; conditions: human, uninfected HeLa-ACE2 cells
[3] = system: SARS-CoV-2; format: cell-based; conditions: for Synergy score with remdesivir (δ): HeLa-ACE2
[4] = cited from earlier work
[5] = system: SARS-CoV-2; assay: microbe, parasite or virus in culture; format: cell-based; conditions: for Emax: Severe acute respiratory syndrome coronavirus 2, HeLa-ACE2, 24 h, read-out: HeLa-ACE2 CoV-2 Sinf Average
[6] = in vitro; conditions: human, Calu-3 Uninf. cells CC50 (µM)
[7] = system: SARS-CoV-2; assay: microbe, parasite or virus in culture; format: cell-based; conditions: for Emax: Severe acute respiratory syndrome coronavirus 2, HeLa-ACE2, 10 h, read-out: HeLa-ACE2 TOA CoV-2 Sinf Average; for EC50: Severe acute respiratory syndrome coronavirus 2, HeLa-ACE2, read-out: HeLa-ACE2 TOA CoV-2 EC50 GeoMean
[8] = Uninfected Calu-3 48 h Cell-Titer Glo cytotoxicity counter screen; conditions: human, uninfected Calu-3 cells
[9] = system: Calu-3 cells; assay: as above
[10] = HepG2 72 h CellTiter-Glo cytotoxicity; conditions: human, HepG2 cells
[11] = system: HepG2; assay: HepG2 72 h CellTiter-Glo cytotoxicity; conditions: 72 h
[12] = system: HeLa-ACE2 cells; assay: Uninfected HeLa-ACE2 24 h live/dead cytotoxicity counter screen; format: cell-based, human
[13] = HEK293T 72 h CellTiter-Glo cytotoxicity; conditions: human, HEK293T cells
[14] = system: HEK293T; assay: HEK293T 72 h CellTiter-Glo cytotoxicity; conditions: 72 h
[15] = system: Calu-3 cells; assay: cells; conditions: Homo sapiens; for Emax: Calu-3, 48 h, read-out: Calu-3 cell count Sinf Average; for EC50: Calu-3, read-out: Calu-3 cell count EC50 GeoMean
[16] = system: HeLa-ACE2 cells; assay: cells; conditions: Homo sapiens; for Emax: HeLa-ACE2, 24 h, read-out: HeLa-ACE2 cell count Sinf Average; for EC50: HeLa-ACE2, read-out: HeLa-ACE2 cell count EC50 GeoMean
[17] = system: HeLa-ACE2 cells; assay: Total cell count in the HeLa-ACE2 TOA assay; format: cell-based; conditions: Homo sapiens
Source text: Supplement 41467_2021_23328_MOESM3_ESM.xlsx, sheet "Table S1" | column: HeLa-ACE2 TOA cell count

[18] = system: HepG2; conditions: human, 72 h
[19] = system: Calu-3 cells
[20] = system: HEK293T; conditions: human, 72 h
[21] = system: HeLa-ACE2 cells; assay: Total cell count in the HeLa-ACE2 TOA (time of addition) assay; format: cell-based, human; conditions: Homo sapiens, HeLa-ACE2; read-out: HeLa-ACE2 TOA cell count EC50 GeoMean
[22] = system: Calu-3 cells; remark: listed apart in the source
[23] = Severe acute respiratory syndrome coronavirus 2, Calu-3, reconfirmed hits, read-out: Calu-3 SARS-CoV-2 EC50
[24] = reconfirmed hits, read-out: HeLa-ACE2 Uninf. cells CC50
[25] = Severe acute respiratory syndrome coronavirus 2, HeLa-ACE2, reconfirmed hits, read-out: HeLa-ACE2 SARS-CoV-2 EC50
[26] = curve plateau at infinite concentration
[27] = read-out: HeLa-ACE2 uninfected cytotoxicity CC50 GeoMean
[28] = curve-fit effect at infinite concentration, average

COC(=O)C1=C(C)NC(C)=C(C(=O)OCCN2CCN(C(c3ccccc3)c3ccccc3)CC2)C1c1cccc([N+](=O)[O-])c1 (stereo not drawn) [Manidipine]
EC50 [1, 23]: 5.48 µM | CC50 at 24 h [2, 24]: > 17.1 µM | Synergy score with remdesivir (δ) [3]: −4.73 | Cmax ([4]; human, in vivo, po): 0.01 µM | Approx. t1/2 ([4]; human, ref [33]-[49]): 3 h | EC50 [5, 25]: 6.89 µM | CC50 at 48 h [6]: > 30 µM

CC(C)(C)Cn1c(N)nc2ccc(-c3[nH]c(C(C)(C)C)nc3-c3ccc(F)cc3)nc21 [Ralimetinib mesylate/LY2228820, Ralimetinib mesylate]
Emax [7, 26]: 100% | EC50 [7]: 787 nM | Emax [1, 26]: 100% | EC50 [1, 23]: 3.83 µM | CC50 at 48 h ([8]; Calu-3 Uninf. cells CC50 (µM), reconfirmed hits): 13.8 µM | CC50 at 48 h ([8]; Calu-3 uninfected cytotoxicity CC50 GeoMean): 13.8 µM | Calu-3 uninfected cytotoxicity Sinf Average [9, 26]: -97% | CC50 at 72 h [10]: 19.8 µM | HepG2 72-hour cytotoxicity Sinf Average [11]: -100% | CC50 at 24 h [2, 24]: 27.4 µM | CC50 at 24 h [2, 27]: 27.4 µM | HeLa-ACE2 uninfected cytotoxicity Sinf Average [12, 26]: -99% | HeLa-ACE2 synergy score with remdesivi [δ] ([3]; combination with remdesivir, synergy score δ): -0.846 | Approx. t1/2 ([4]; human, ref [33]-[49]): 190 h | Cmax ([4]; read-out: Approx. Cmax, human oral, ref [33]-[49]): 5 µM | CC50 at 72 h [13]: 20.3 µM | HEK293T 72-hour cytotoxicty Sinf Average [14]: -100% | Emax [15]: 95% | EC50 [15]: 5.55 µM | Emax [16]: -60% | EC50 [16]: > 6.87 µM | Emax ([17]; HeLa-ACE2, 10 h, curve plateau at infinite concentration, read-out: HeLa-ACE2 TOA cell count Sinf Average): 55% | EC50 ([17]; HeLa-ACE2, read-out: HeLa-ACE2 TOA cell count EC50 GeoMean): > 4.43 µM | Emax [5, 26]: 100% | EC50 [5, 25]: 1.87 µM

COc1ccc2c(O[C@@H]3C[C@H]4C(=O)N[C@]5(C(=O)NS(=O)(=O)C6CC6)C[C@H]5/C=C\CCCCN(C)C(=O)[C@@H]4C3)cc(-c3nc(C(C)C)cs3)nc2c1C [Simeprevir]
Emax [7]: 100% | EC50 [7]: > 8620 nM | Emax [1]: 100% | EC50 ([1]; Severe acute respiratory syndrome coronavirus 2, Calu-3, detail column, read-out: Calu-3 CoV-2 EC50 GeoMean): > 7.7 µM | EC50 [1, 23]: 7.7 µM | Calu-3 SI ([1]; selectivity index, uninfected Calu-3 CC50 / SARS-CoV-2 EC50): > 2.91 | HepG2 72-hour cytotoxicity Sinf Average [18]: -100% | uninfected Calu-3 CC50 [19]: > 22.39 ×÷ 1.591 (n=6) μM | Calu-3 uninfected cytotoxicity Sinf Average ([19]; human, 48 h): -100% | CC50 at 24 h [2, 24]: > 22.2 µM | CC50 at 24 h [2, 27]: > 22.2 µM | HeLa-ACE2 uninfected cytotoxicity Sinf Average ([12]; human, uninfected HeLa-ACE2 cells, 24 h): -100% | HEK293T 72-hour cytotoxicty Sinf Average [20]: -102% | Synergy score with remdesivir (δ) [3]: −0.67 | HeLa-ACE2 synergy score with remdesivi ([3]; combination with remdesivir): -0.667 δ | Cmax ([4]; human, in vivo, po): 32 µM | Approx. t1/2 ([4]; human, ref [33]-[49]): 16 h | Emax [15]: 100% | EC50 [15]: > 9.6 µM | Emax [16]: 100% | EC50 [16]: > 9.47 µM | Emax [5]: 100% | EC50 ([5]; Severe acute respiratory syndrome coronavirus 2, HeLa-ACE2, detail column, read-out: HeLa-ACE2 CoV-2 EC50 GeoMean): > 7.88 µM | EC50 [5, 25]: 7.88 µM | HeLa-ACE2 SI ([5]; selectivity index, uninfected HeLa-ACE2 CC50 / SARS-CoV-2 EC50): > 2.81 | EC50 [21]: > 9.59 µM | CC50 at 48 h [6]: > 22.4 µM

Deazaneplanocin A
Calu-3 cell count Sinf Average [22, 28]: 62% | EC50 ([22]; read-out: Calu-3 cell count EC50 GeoMean, unrounded geometric mean): 108 nM | Calu-3 CoV-2 Sinf Average [1, 28]: -85% | EC50 ([1]; unrounded geometric mean, read-out: Calu-3 CoV-2 EC50 GeoMean): 0.0568 µM | Calu-3 uninfected cytotoxicity Sinf Average [9, 28]: -70% | CC50 ([9]; read-out: Calu-3 uninfected cytotoxicity CC50 GeoMean, unrounded geometric mean): > 10.3 µM | HeLa-ACE2 uninfected cytotoxicity Sinf Average [12, 28]: -79% | CC50 ([12]; unrounded geometric mean, read-out: HeLa-ACE2 uninfected cytotoxicity CC50 GeoMean): > 7.95 µM | HeLa-ACE2 CoV-2 Sinf Average [5, 28]: -100% | EC50 ([5]; unrounded geometric mean, read-out: HeLa-ACE2 CoV-2 EC50 GeoMean): > 9.59 µM
